The target of series [1] is T1, Equilibrative nucleoside transporter 2 (Homo sapiens, UniProt Q14542).
T1 sequence (Q14542 whole entry): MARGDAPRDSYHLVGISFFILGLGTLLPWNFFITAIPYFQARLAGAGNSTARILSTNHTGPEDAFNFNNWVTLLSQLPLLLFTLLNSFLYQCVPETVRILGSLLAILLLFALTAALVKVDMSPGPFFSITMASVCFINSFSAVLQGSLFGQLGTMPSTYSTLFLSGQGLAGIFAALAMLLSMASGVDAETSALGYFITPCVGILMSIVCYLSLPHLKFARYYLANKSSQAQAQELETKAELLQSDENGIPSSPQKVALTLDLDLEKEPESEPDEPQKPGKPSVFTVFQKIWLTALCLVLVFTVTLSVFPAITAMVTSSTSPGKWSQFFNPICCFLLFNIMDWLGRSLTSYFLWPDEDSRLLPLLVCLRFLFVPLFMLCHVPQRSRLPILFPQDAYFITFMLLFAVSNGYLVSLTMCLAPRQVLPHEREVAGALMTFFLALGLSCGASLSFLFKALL
Description: Binding affinity to recombinant human ENT2 expressed in Saccharomyces cerevisiae assessed as inhibition of [3H]-uridine transport after 15 mins by scintillation counting analysis. Type of series: ADME. Particulars: for Ki: read-out: Ki(app).

The target in series [2] is T2, Sodium/nucleoside cotransporter 1 (Homo sapiens, UniProt O00337).
T2 sequence (O00337 whole entry): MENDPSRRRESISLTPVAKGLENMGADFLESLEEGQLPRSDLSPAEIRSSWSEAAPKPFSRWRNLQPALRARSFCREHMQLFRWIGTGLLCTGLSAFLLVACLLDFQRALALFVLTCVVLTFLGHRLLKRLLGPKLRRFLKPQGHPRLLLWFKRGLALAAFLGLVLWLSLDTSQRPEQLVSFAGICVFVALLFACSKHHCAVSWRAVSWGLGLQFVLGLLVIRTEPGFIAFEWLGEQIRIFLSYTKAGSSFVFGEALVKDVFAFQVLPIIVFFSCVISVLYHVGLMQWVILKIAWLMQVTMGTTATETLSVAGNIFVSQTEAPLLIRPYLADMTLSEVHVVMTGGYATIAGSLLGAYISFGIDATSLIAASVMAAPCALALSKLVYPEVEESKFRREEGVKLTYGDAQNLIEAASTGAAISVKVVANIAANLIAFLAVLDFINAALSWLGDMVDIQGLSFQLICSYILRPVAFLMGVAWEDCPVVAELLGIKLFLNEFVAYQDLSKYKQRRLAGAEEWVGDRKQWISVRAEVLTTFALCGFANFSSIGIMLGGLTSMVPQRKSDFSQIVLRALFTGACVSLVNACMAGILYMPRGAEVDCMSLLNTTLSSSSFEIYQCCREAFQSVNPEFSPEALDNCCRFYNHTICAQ
Description: Binding affinity to recombinant human CNT1 expressed in Saccharomyces cerevisiae assessed as inhibition of [3H]-uridine transport after 15 mins by scintillation counting analysis. Format: ADME. Conditions: for Ki: read-out: Ki(app).

The target in series [3] is T3, Sodium/nucleoside cotransporter 2 (Homo sapiens, UniProt O43868).
T3 sequence (O43868 whole entry): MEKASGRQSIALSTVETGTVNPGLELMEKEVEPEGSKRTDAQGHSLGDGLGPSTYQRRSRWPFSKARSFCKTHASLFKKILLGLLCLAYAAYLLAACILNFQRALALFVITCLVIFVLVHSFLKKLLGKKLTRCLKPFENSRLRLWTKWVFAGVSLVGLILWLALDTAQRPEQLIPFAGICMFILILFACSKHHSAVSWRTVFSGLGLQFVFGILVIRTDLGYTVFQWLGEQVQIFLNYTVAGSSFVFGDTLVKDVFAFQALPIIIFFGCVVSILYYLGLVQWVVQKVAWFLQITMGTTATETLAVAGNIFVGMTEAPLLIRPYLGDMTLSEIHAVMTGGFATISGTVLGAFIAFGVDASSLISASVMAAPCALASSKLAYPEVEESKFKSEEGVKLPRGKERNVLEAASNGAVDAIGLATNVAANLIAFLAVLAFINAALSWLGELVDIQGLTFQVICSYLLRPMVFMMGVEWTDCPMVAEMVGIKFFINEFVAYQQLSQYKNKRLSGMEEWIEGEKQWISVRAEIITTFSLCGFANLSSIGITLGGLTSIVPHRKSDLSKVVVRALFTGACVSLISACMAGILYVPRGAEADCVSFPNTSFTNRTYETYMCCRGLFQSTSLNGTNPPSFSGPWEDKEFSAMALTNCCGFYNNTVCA
Description: Binding affinity to recombinant human CNT2 expressed in Saccharomyces cerevisiae assessed as inhibition of [3H]-uridine transport after 15 mins by scintillation counting analysis. Type of series: ADME. Particulars: for Ki: read-out: Ki(app).

Series [4] addresses T4, Solute carrier family 28 member 3 (Homo sapiens, UniProt Q9HAS3).
T4 sequence (Q9HAS3 whole entry): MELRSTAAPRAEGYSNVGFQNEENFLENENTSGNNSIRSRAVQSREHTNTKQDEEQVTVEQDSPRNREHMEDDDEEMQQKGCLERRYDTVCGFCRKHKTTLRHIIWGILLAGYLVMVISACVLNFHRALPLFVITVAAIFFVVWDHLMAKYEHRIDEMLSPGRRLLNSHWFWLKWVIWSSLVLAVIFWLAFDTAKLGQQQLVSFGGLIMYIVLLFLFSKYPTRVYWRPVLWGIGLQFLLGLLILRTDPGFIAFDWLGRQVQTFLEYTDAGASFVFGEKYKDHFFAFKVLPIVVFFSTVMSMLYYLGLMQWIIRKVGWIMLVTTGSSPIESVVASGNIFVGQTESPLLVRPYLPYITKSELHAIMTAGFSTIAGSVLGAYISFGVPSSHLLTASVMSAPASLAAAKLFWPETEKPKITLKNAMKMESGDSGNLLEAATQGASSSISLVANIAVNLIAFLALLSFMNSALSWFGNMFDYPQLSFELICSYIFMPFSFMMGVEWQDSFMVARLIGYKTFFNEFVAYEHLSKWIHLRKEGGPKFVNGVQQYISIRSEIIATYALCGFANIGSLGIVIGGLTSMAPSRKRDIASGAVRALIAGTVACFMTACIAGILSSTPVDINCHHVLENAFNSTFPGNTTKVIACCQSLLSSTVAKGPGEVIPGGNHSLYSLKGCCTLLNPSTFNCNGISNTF
Description: Binding affinity to recombinant human CNT3 expressed in Saccharomyces cerevisiae assessed as inhibition of [3H]-uridine transport after 5 mins by scintillation counting analysis. Particulars: for Ki: read-out: Ki(app). Format: ADME.

A short description of series [5]: Tmax in CD-1 mouse brain at 60 mg/kg, iv administered as bolus dose in absence of ENT1 inhibitor NBMPR-P. Format: ADME, organism-based. On the set-up: dose 60 mg/kg, route intravenous.
The nature of series [6]: Tmax in CD-1 mouse brain at 60 mg/kg, iv administered as bolus dose in presence of ENT1 inhibitor NBMPR-P. Format: ADME, organism-based. Further details: dose 60 mg/kg, route intravenous.
A short description of series [7]: Cmax in CD-1 mouse brain at 60 mg/kg, iv administered as bolus dose in absence of ENT1 inhibitor NBMPR-P. Format: ADME, organism-based. On the set-up: dose 60 mg/kg, route intravenous.
Series [8] in a line: Cmax in CD-1 mouse brain at 60 mg/kg, iv administered as bolus dose in presence of ENT1 inhibitor NBMPR-P. Format: ADME, organism-based. On the set-up: dose 60 mg/kg, route intravenous.
The subject of series [9] is Brain. Put plainly: AUC (0 to 4 hrs) in CD-1 mouse brain at 60 mg/kg, iv administered as bolus dose in absence of ENT1 inhibitor NBMPR-P. Format: ADME, organism-based. Conditions: in vivo. Further details: time < 4 hr, dose 60 mg/kg, route intravenous.
Series [10] concerns Brain. Description: AUC (0 to 4 hrs) in CD-1 mouse brain at 60 mg/kg, iv administered as bolus dose in presence of ENT1 inhibitor NBMPR-P. Format: ADME, organism-based. On the set-up: time < 4 hr, dose 60 mg/kg, route intravenous. Conditions: in vivo.
Series [11] in a line: Apparent volume of distribution at steady state in CD-1 mouse at 60 mg/kg, iv administered as bolus dose in absence of ENT1 inhibitor NBMPR-P. Type of series: ADME, organism-based. Further details: dose 60 mg/kg, route intravenous. Particulars: in vivo, read-out: Vdss(app).
A short description of series [12]: Apparent volume of distribution at steady state in CD-1 mouse at 60 mg/kg, iv administered as bolus dose in presence of ENT1 inhibitor NBMPR-P. On the set-up: dose 60 mg/kg, route intravenous. Conditions: in vivo, read-out: Vdss(app). Type of series: ADME, organism-based.
Series [13] is described as follows: Elimination half life in CD-1 mouse at 60 mg/kg, iv administered as bolus dose in absence of ENT1 inhibitor NBMPR-P. Format: ADME, organism-based. On the set-up: dose 60 mg/kg, route intravenous. Particulars: in vivo, read-out: beta t1/2 (converted).
The nature of series [14]: Elimination half life in CD-1 mouse at 60 mg/kg, iv administered as bolus dose in presence of ENT1 inhibitor NBMPR-P. Further details: dose 60 mg/kg, route intravenous. Particulars: in vivo, read-out: beta t1/2 (converted). Format: ADME, organism-based.
Series [15] is described as follows: AUC (0 to infinity) in CD-1 mouse at 60 mg/kg, iv administered as bolus dose in absence of ENT1 inhibitor NBMPR-P. Type of series: ADME, organism-based. Further details: time infinity, dose 60 mg/kg, route intravenous. Particulars: plasma.
Series [16] is described as follows: AUC (0 to infinity) in CD-1 mouse at 60 mg/kg, iv administered as bolus dose in presence of ENT1 inhibitor NBMPR-P. Format: ADME, organism-based. Further details: time infinity, dose 60 mg/kg, route intravenous. Conditions: plasma.
The target of series [17] is T5, Equilibrative nucleoside transporter 1 (Homo sapiens, UniProt Q99808).
T5 sequence (Q99808 whole entry): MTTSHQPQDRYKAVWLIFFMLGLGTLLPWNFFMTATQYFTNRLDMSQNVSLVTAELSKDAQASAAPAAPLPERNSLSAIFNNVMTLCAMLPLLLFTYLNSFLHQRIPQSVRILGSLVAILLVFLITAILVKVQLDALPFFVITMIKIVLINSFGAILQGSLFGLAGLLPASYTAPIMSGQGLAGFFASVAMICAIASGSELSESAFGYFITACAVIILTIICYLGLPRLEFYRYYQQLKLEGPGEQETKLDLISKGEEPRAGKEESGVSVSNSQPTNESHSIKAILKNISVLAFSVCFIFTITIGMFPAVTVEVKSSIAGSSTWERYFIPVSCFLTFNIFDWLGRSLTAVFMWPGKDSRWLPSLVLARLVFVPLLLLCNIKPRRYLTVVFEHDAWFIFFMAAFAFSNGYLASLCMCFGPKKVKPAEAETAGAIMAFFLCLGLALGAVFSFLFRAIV
Description: Binding affinity to recombinant human ENT1 expressed in Saccharomyces cerevisiae assessed as inhibition of [3H]-uridine transport after 15 mins by scintillation counting analysis. Type of series: ADME.

The structures appear in SMILES notation.

Usually IC50 stands for the concentration needed to halve the response being measured. A word on the Tmax: it is the time at which the peak concentration occurs. Broadly, the Cmax is the peak of the concentration-time curve. What is called AUC(0-inf) is total exposure, with the tail of the curve extrapolated.

Regarding `Nc1ncnc2c1ncn2[C@@H]1O[C@H](CO)[C@@H](O)[C@H]1O` [ADENOSINE], the half-inhibitory concentration (IC50) was determined as 106 µM in series [1], 5.5 µM in [2], 5.5 µM in series [3] and 3.3 µM in series [4]. In addition, the Ki was 106 µM in series [1], 1.8 µM in series [2], 5.3 µM in [3] and 2.1 µM in series [4].

As for `Nc1nc(F)nc2c1ncn2[C@@H]1O[C@H](CO)[C@@H](O)[C@@H]1O` [FLUDARABINE], the Tmax in [5] came out at 0.88 h; in series [6] it was 1.63 h. Also, the Cmax in [7] was determined as 6050 ng/g; in series [8] it was 801 ng/g. Further, the AUC with Brain [9] worked out at 11300 ng·h/g; in the series with Brain [10] it was 2490 ng·h/g. Also, the Vd turned out to be 1.6 L/kg in series [11] and 2.6 L/kg in series [12]. Besides, the half-life in series [13] was 1.7 h; in [14] it was 2.2 h. For the same molecule, the AUC(0-inf) amounted to 39600 ng·h/mL in series [15] and 65700 ng·h/mL in series [16].

With `O=c1ccn([C@@H]2O[C@H](CO)[C@@H](O)[C@H]2O)c(=O)[nH]1` [URIDINE], the IC50 amounted to 52 µM in series [17]; 234 µM in [1]; 5.8 µM in series [2]; 32 µM in series [3]; 5.4 µM in series [4]. The Ki worked out at 51 µM in series [17] (read-out: Ki(app)); 242 µM in series [1]; 5.2 µM in [2]; 31 µM in [3]; 3.4 µM in [4].

Source of the values: ChEMBL document CHEMBL3526052 (Drug Metab Dispos, 2013).
